Reference: patent US10940218B2, “Treatment of meningiomas using phenylbenzothiazole, stilbene, biphenylalkyne, or pyridine derivatives” (MAYO FOUNDATION FOR MEDICAL EDUCATION AND RESEARCH, priority 2012, dated 2021)
Entries after “also recorded” stand apart in the source; their conditions may differ.

Tests used:
meningiomas = assay: PiB PET/CT imaging of meningiomas in patients; type: in vivo, human
Source text: (§1) An Alzheimer's imaging database of two hundred forty-one patients was reviewed. […] All patients had been imaged by at least one MRI, as well as by FDG-PET/CT and PET/CT using the compound of formula (V). MRI reports of all patients were reviewed for possible meningiomas and other tumors. […] The diagnostic confidence of the radiologists interpreting the studies varied slightly, depending on factors such as tumor location and previous imaging. […] Tumors smaller than 7 millimeters are generally considered too small to be evaluated by PET or PET/CT. This is an excepted limitation of PET or PET/CT as a modality. […] None of the meningiomas in the series would be classified as atypical or aggressive based on MRI or CT imaging. One presumed extracranial schwannoma was seen, showing mild uptake on FDG-PET/CT, but no uptake on PET/CT using the compound of formula (V).
(§2) The radiologic interpretations of MRI, CT and FDG PET/CT scans from a population of 834 people who participated in the population-based Mayo Clinic Study of Aging (MCSA) from March 2006 through September 2011 were reviewed for the presence of tumors or other brain lesions. (See, Kantarci K, Lowe V, Przybelski S A, et al., “Magnetic resonance spectroscopy, {beta}-amyloid load, and cognition in a population-based sample of cognitively normal older adults”, Neurology 2011; 77:951-8; and Roberts R O, Geda Y E, Knopman D S, et al., “The Mayo Clinic Study of Aging: design and sampling, participation, baseline measures and sample characteristics”, Neuroepidemiology 2008; 30:58-69.) Participants were randomly selected for recruitment in the MCSA from a population of older adult residents of Olmsted County, Minn., USA. Those with neurological, psychological or systemic illnesses were not excluded. Individuals with dementia, or those unable to be imaged for medical reasons were excluded. All patients were imaged with C11-PiB PET/CT, F18-FDG PET/CT and non-contrast MRI at least once as part of the study. Any additional patient imaging and clinical history was then reviewed.
(§3) Tumors found in any of the subjects were then categorized as possible meningiomas or non-meningiomas based on the reading of the reporting neuroradiologist. Possible meningiomas were further reviewed as a group. A more strict set of criteria were applied to select a subset of the possible meningiomas that were designated “high-likelihood meningiomas” for further analysis and were defined by (1) tumors that were confirmed to be enhancing on diagnostic MRI (obtained separately for clinical purposes) and (2) tumors that had greater than two years of follow-up imaging confirming no growth or slow growth (1-2 mm per year). When the lead diagnosis of the identified tumor was metastasis, the diagnosis was confirmed by biopsy or autopsy. All tumors smaller than 5 mm thick were excluded, given they fall below the generally accepted lower limits of PET/CT resolution.
(§4) PET imaging was performed as part of the Mayo Clinic Study of Aging as previously described. (See Kantarci K, Lowe V, Przybelski S A, et al., “Magnetic resonance spectroscopy, {beta}-amyloid load, and cognition in a population-based sample of cognitively normal older adults”, Neurology 2011; 77:951-8.) PiB PET/CT, then FDG PET/CT were performed on the same day. PET/CT imaging was performed on a 690XT or DRX PET/CT tomograph (GE Healthcare). The PET sinograms were reconstructed using a fully-3D OSEM algorithm into a 30 cm field of view; the pixel size was 1.2 mm and the slice thickness was 3.27 mm (DRX) or 1.96 mm (690XT). CT imaging was obtained immediately prior to PET acquisition and used for attenuation correction. Cerebral PiB retention, a marker of amyloid deposition, was measured as previously described. (See Kantarci K, Lowe V, Przybelski S A, et al. “Magnetic resonance spectroscopy, {beta}-amyloid load, and cognition in a population-based sample of cognitively normal older adults”, Neurology 2011; 77:951-8.) […]

[1] = tested on: meningioma tissue sections; assay: Fluorescent tissue staining of meningioma sections; type: binding, human; details: for fluorescent staining of meningioma tissue: 100 nM stain, 5 μm sections, fluorescent microscopy
Source text: The Department of Pathology, Mayo Clinic Rochester Tumor Tissue Registry, contains tumor samples procured by autopsy and surgery. Meningiomas, brain metastases and other tumors were identified by searching CoPath, a Mayo Clinic electronic pathology database of tumors collected since 1982. Tumor type was confirmed by viewing H&E stained slides under a light microscope.
Fresh cut 5 μm thick sections were used. Each staining run included normal brain and Alzheimer diseased brain as controls. Fluorescent tissue staining and microscopy was performed similar to methods previously described at Ikonomovic M D, Klunk W E, Abrahamson E E, et al., “Post-mortem correlates of in vivo PiB-PET amyloid imaging in a typical case of Alzheimer's disease”, Brain: A Journal Of Neurology 2008; 131:1630-45. Meningioma and other brain tumor sections were stained with 100 nM CN-PiB, 100 nM of unlabeled PiB or with saline alone as a negative control. The staining protocol was as follows: deparaffinization and rehydration, 0.25% KMnO4 incubation, water wash, 1% K2S2O5/1% Oxalic Acid incubation, water wash, PBS wash, 6-CN-PiB/PiB/saline incubation, PBS wash, NaCl, K2HPO4, and KH2PO4 incubation, water wash, mount coverslip, and storage at 4° C. in the dark until imaged. Slides were imaged within five days of staining. Immunohistochemical staining of meningiomas for beta amyloid protein was performed using NCL-B-Amyloid mouse anti-human antibody per standard clinical protocol.
Tissue stain images were obtained on a Zeiss 510 confocal microscope with excitation at 405 nm, a 420-480 bandpass filter, and the laser set at 15% power.
Images were obtained with a C-Apochromat 40×/1.2 W lens.

non-meningioma tumors = assay: PiB PET/CT imaging of non-meningioma tumors and lesions in patients; type: in vivo, human
Source text: as §1, §2, §3, §4

[2] = 16 high-likelihood meningiomas in 15 patients, C11-PiB PET/CT

[11CH3]Nc1ccc(-c2nc3ccc(O)cc3s2)cc1 [PiB, [N-Methyl-^11C]2-(4′-methylaminophenyl)-6-hydroxybenzothiazole]
SUVmax (meningiomas; 2.0 cm thick meningioma, focused irradiation 1 month prior to PiB PET/CT): 3.6
SUVmax range (meningiomas; [2]): 1.4-3.6
average SUVmax (by body weight) (meningiomas; [2]): 2.2
uptake on PET/CT (meningiomas; Example 1, one of seven presumed meningiomas, small size (~4 mm thick)): some uptake
uptake on PET/CT (meningiomas; Example 1, six of seven presumed meningiomas, 241 patient database): intense uptake
uptake on PET/CT (meningiomas; Example 2, recurrent orbital meningioma and falx meningioma in one patient): avid uptake
uptake on PET/CT (meningiomas; Example 2, total of ten presumed meningiomas): show uptake
repeat imaging result (meningiomas; Example 3, one patient imaged two times, many months in between): the same positive results
uptake on PET/CT (meningiomas; Example 3, thirteen out of thirteen presumed meningiomas >5 mm within field of view): positive uptake
uptake on PET/CT (meningiomas; Example 3, three non-diagnostic presumed meningiomas): some positive uptake
repeat imaging SUVmax of meningioma (meningiomas; Example 4, two patients imaged with PiB PET/CT more than once): stable or increasing SUVmax
activity at the meningioma on PET/CT (meningiomas; FIG. 1, Patient #1, right tentorium cerebelli mass): intense activity
activity at the meningioma on PET/CT (meningiomas; FIG. 2, Patient #4, tuberculum sellae and planum sphenoidale mass): intense activity
SUVmax (meningiomas; FIG. 3, 2.6 cm thick meningioma of the right tentorium): 2.8
SUVmax (meningiomas; FIG. 4 meningioma, Panels A-C): 2.8
SUVmax (meningiomas; FIG. 4 meningioma, panels G-I): 3.6
SUVmax (meningiomas; FIG. 5 Panel A, sella/supracellar region meningioma): 1.7
SUVmax (meningiomas; FIG. 5 Panel C, internal auditory canal meningioma): 1.9
SUVmax (meningiomas; FIG. 5 Panel E, lateral ventricle meningioma): 2.1
SUVmax (meningiomas; FIG. 5 Panel G, post-surgical meningioma recurrence): 1.5
PiB PET/CT result (meningiomas; all 16 meningiomas identified by strict imaging criteria): PiB activity greater than normal adjacent tissues; also recorded: clearly diagnostically positive
amount of harmful radiation to the patient (meningiomas; injection and PET/CT imaging): within acceptable limits for diagnostic purposes
fluorescent staining of meningioma tissue [1]: stained brightly positive; also recorded: unique staining pattern
fluorescent staining of meningioma tissue ([1]; listed as Formula (V)): accumulate
location of staining within meningioma cells ([1]; tissue sections): within the nucleus of the cells of the meningiomas
uptake on PET/CT (non-meningioma tumors; Example 1, other tumors): little to no uptake
uptake on PET/CT (non-meningioma tumors; Example 1, presumed extracranial schwannoma): no uptake
uptake on PET/CT (non-meningioma tumors; Example 3, 25 types of tumors and non-neoplastic lesions incl. schwannoma, hamartoma, ependymoma, pituitary adenoma): only background uptake or no uptake
SUVmax (non-meningioma tumors; FIG. 4 melanoma metastasis): 0.9
SUVmax (non-meningioma tumors; FIG. 4 small cell lung cancer metastasis): 1.1
SUVmax (non-meningioma tumors; FIG. 5 Panel B, pituitary macroadenoma): 0.9
SUVmax (non-meningioma tumors; FIG. 5 Panel D, schwannoma): 0.8
SUVmax (non-meningioma tumors; FIG. 5 Panel F, ependymoma): 0.4
SUVmax (non-meningioma tumors; FIG. 5 Panel H, postoperative changes/scarring): 0.6
PiB PET/CT result (non-meningioma tumors; all non-meningioma intracranial tumors (metastases, pituitary macroadenomas, schwannomas, ependymoma)): PiB activity equal or less than normal adjacent tissue; also recorded: negative
SUVmax (non-meningioma tumors; all non-meningioma intracranial tumors identified): ≤ 1.1
SUVmax (non-meningioma tumors; bony lesions (hemangiomas, fibrous dysplasia, hyperostosis frontalis, osteoma)): < 1.0
SUVmax (non-meningioma tumors; extra-cranial tumors (sinus polyps, mucus retention cysts, mucocele, Warthin's tumors, inverted papilloma)): < 1.2
PiB PET/CT result (non-meningioma tumors; intracranial metastases (melanoma, small cell lung cancer)): negative with low activity
PiB activity (non-meningioma tumors; non-tumorous lesions (strokes, arachnoid cysts, multiple sclerosis lesions)): only trace PiB activity
SUVmax (non-meningioma tumors; vascular lesions (aneurysms, telangiectasias, cavernomas, venous angiomas)): ≤ 1.2
